US20240124528A1, “ANTAGONIST OF INTERLEUKIN-17B RECEPTOR (IL-17RB) AND USE THEREOF” (Academia Sinica, priority 2020, published 2024)

Assays:
[1] = tested on: PDX-derived tumor cells (PC080, PC084); assay: Aggressive behavior of PDX-derived pancreatic tumor cells (RT-qPCR, invasion, SACF); assay type: cell-based, human; conditions: peptides 30 mins, then 50 ng/ml rIL-17B
Procedure: FIGS. 19A to 19D include charts showing that treatment with the loop peptide suppresses aggressive behavior of patient-derived pancreatic tumor cells. (FIG. 19A) CFPAC1 cells were treated with Alexa Fluor 568-labeled or non-labeled cold peptides of TAT48-57 (Control) and TAT-IL-17R403-416 (Loop) for 30 mins, respectively. Confocal microscopy was used for visualization of peptide penetration into cells. (FIG. 19B) The PDX-derived tumor cells (PC080 left, PC084 right) were pretreated with the peptides for 30 mins and then treated with 50 ng/ml rIL-17B for 2 hrs in serum-free conditions. (FIG. 19C and FIG. 19D) These cells were measured by RT-qPCR for the cytokine gene mRNA expression (n=3), or for Invasion assay (n=4) (FIG. 19C) and SACF assay (n=4) (FIG. 19D). Data in (FIG. 19B—FIG. 19D) are mean±s.d. * P<0.05, **P<0.001 by two-tailed Student's t-test.

[2] = tested on: peripheral blood mononuclear cells (PBMCs); assay: IL-17E-induced IL-4 and IL-13 mRNA expression in PBMCs (RT-qPCR); assay type: cell-based; conditions: peptide pretreatment
Procedure: (§1) (FIG. 24A) Flow chart describing the experimental design for testing the effects of anti-IL-17RB antibody and loop peptide on IL-17E-induced expression of IL-4 and IL-13 in peripheral blood mononuclear cells (PBMCs). PBMCs were purified by Ficoll-paque and used for the following experiments. (FIG. 24B to FIG. 24E) IL-4 and IL-13 expression induced by IL-17B or IL-17E in the PBMCs was determined by RT-qPCR after mIgG or anti-IL-17RB antibody pretreatment (FIG. 24B and FIG. 24C) and control or loop peptide pretreatment (FIG. 24D and FIG. 24E), respectively. (FIG. 24F and FIG. 24G) The DCs derived from mouse bone marrow were treated with the control or loop peptides, separately. (FIG. 24F) Flow cytometry analysis using anti-CD80, CD86 and MHC-II antibodies was performed to determine the activity of the DCs after incubation with the control or loop peptides for 48 hrs. (FIG. 24G) The activities of DCs were quantified by gating the area of the CD80, CD86 and MHC-II-positive cells (n=3). Data are mean±s.d.

[3] = tested on: DCs derived from mouse bone marrow; assay type: cell-based
Procedure: as §1

[4] = tested on: pancreatic cancer cells expressing IL-17RB; assay: Invasion assay after peptide treatment; assay type: cell-based, human; conditions: CFPAC1 and PDX-derived cells treated with peptide
Source text: FIGS. 7A to 7J include charts showing that disruption of the interaction between IL-17RB and MLK4 by the loop peptide blocks oncogenic progression. (FIG. 7A) Peptides TAT48-57 (Control) (SEQ ID NO: 21) and TAT-IL-17RB403-416 (Loop) (SEQ ID NO: 30) used for the following experiments. (FIG. 7B) Immunoblotting analysis of IL-17RB binding to MLK4 with Loop peptide treatment. 293T cells expressing Flag-MLK4 and HA-IL-17RB were pretreated with the control and loop peptides with different dose (0, 0.1, 1, 10, 50, 100 ng/ml) for 30 mins, and then added rIL-17B for 30 mins. […] CCL20 and TFF/mRNA expression of these cells were measured by RT-qPCR (n=3) (FIG. 7D), the same cells were for invasion assay (n=4) (FIG. 7E) and SACF assay (n=4) (FIG. 7F). […] (FIG. 7I) The experimental EKP mice (n=7 for each group) were euthanized at Day 56, and the metastatic tumor nodules in the lungs were counted. […]
FIGS. 19A to 19D include charts showing that treatment with the loop peptide suppresses aggressive behavior of patient-derived pancreatic tumor cells. […] (FIG. 19C and FIG. 19D) These cells were measured by RT-qPCR for the cytokine gene mRNA expression (n=3), or for Invasion assay (n=4) (FIG. 19C) and SACF assay (n=4) (FIG. 19D). […]

“RKKRRQRRRVCDGTCGKSEGSPS (IL-17RB inhibitory peptide, fusion protein) [loop peptide]” was tested, and the “aggressive behavior of patient-derived pancreatic tumor cells” value [1] was “suppresses”, the “IL-17E-induced IL-4 and IL-13 mRNA expression” value [2] was “does not suppress” and the “bone marrow-derived dendritic cell activation (CD80, CD86, MHC-II)” value [3] was “does not suppress IL-17E-induced IL-4 and IL-13 mRNA expression in PBMCs or affect”. For the same sequence, the invasion ability [4] was “diminished”.
